Test results taken from patent US6207656A, “Vitamin D analogues and their neuronal effects” (Cephalon, Inc., priority 1998, dated 2001).
pKd: −log10 of the molar value. Entries after “also recorded” stand apart in the source; their conditions may differ.

Tests used:
GDNF mRNA = assay: Induction of GDNF mRNA expression in rats; format: in vivo, Sprague Dawley rats; details: 0.3, 1.0 and 3.0 μg/kg oral, 8 days; septum and hippocampus (FIG. 1)
Method: (§1) Young adult male Sprague Dawley rats (250-350 g) were administered Compound (A), Compound (E), or a vehicle (80% propylene glycol (human formulation grade; Spectrum Quality Products, Inc., Gardena, Calif., catalog #PR130-55003) and 20% phosphate buffer, pH 9.2) at doses ranging from 0.1 to 5.5 μg/kg daily by oral gavage for eight days. Five hours after the last dose, the animals were sacrificed by decapitation. Each brain was quickly removed and chilled in ice-cold saline. The brain was cut into 2 mm thick coronal sections. Portions of the hippocampus, encompassing the CA1 region, and the medial septum were removed by punching 2 mm^3 sections using a calibrated tissue punch. Punched sections were immediately frozen on dry ice and then stored at -70° C. RNA was prepared from dissected tissue pieces.
(§2) Punches of tissue were homogenized in […] RNAzolB™ (Bioteex Laboratories, Houston, Tex.) using a homogenizer (Tekmar, Germany) until fully homogenized and then 250 μl RNAzilB™ was added. Typically, punches from the corresponding regions of brains of 2 to 3 animals were combined together. RNA was prepared as recommended by the manufacturer (Biotecx Laboratories). […] Concentration of RNA was measured spectrophotometrically and the quality of RNA was visualized on a nondenaturing agarose gel. […]

NT-3 mRNA = assay: Induction of NT-3 mRNA expression in rats; format: in vivo, Sprague Dawley rats; details: 0.3, 1.0 and 3.0 μg/kg oral, 8 days; hippocampus (FIG. 1)
Method: as §1, §2

BDNF mRNA = assay: Induction of BDNF mRNA expression in rats; format: in vivo, Sprague Dawley rats; details: 0.3, 1.0 and 3.0 μg/kg oral, 8 days; hippocampus (FIG. 1)
Method: as §1, §2

[1] = Serum calcium / hypercalcemia in rats (2 weeks dosing, 28-day toxicology); format: in vivo, Sprague Dawley rats
[2] = tested on: rats having bilateral lesions of the fimbria-fornix; assay: Locomotor activity (hyperactivity) after bilateral fimbria-fornix lesion; format: in vivo, rat
Method: To determine whether low calcemic doses of vitamin D3 analogs would improve lesion-induced behavioral deficits, Compound (A) (0.1 and 1.0 μg/kg/day) was administered orally once a day (26 days) to rats having bilateral lesions of the fimbria-fornix. Bilateral lesions of the fimbria-fornix cause rats to become hyperactive. To test for hyperactivity, rats were placed in a box marked with squares, where it was observed how many squares the rats entered in a five minute period.

[3] = tested on: acrylamide-induced peripheral neuropathy in rats; assay: Acrylamide-induced peripheral neuropathy, landing foot spread; format: in vivo, rat
Method: Peripheral neuropathy was induced in rats by the administration of the neurotoxin acrylamide, 50 mg/kg, IP, 3×/week. The acrylamide treatment occurred during the first three weeks of the experiment. After acrylamide was discontinued, the animals were allowed to recover for an additional 3-5 weeks. The ability of Compound (A) or Compound (B) to either slow the onset of peripheral neuropathy, reduce the severity of the peripheral neuropathy or enhance the recovery from peripheral neuropathy was determined. The compounds were administered either orally (Compound (A)) or via subcutaneous Alzet mini-pumps (I month model)(Compounds (A) and (B)) beginning 3 days prior to the first dose of acrylamide. Compound (A) was administered orally at doses of 0.3, 1.0 and 3.0 μg/kg/day and by mini-pump at doses of 10, 55, 100, 330 and 550 ng/day. Compound (B) was administered by mini-pump at doses of 10, 33, 100, 330 and 1000 ng/day. These dose ranges were selected to limit toxicity and to bracket the dose range used in fimbria fornix lesion experiments. The mini-pumps were replaced at the end of the fourth week so that the test compound was on board for the duration of the experiment. In FIG. 11B, the data from FIG. 11A was averaged.

vitamin D receptor = molecular target: T1, vitamin D receptor (Gallus gallus, UniProt O42392); assay: Vitamin D receptor binding (displacement of 3H-1α,25(OH)2D3)
T1 sequence (O42392 1-451): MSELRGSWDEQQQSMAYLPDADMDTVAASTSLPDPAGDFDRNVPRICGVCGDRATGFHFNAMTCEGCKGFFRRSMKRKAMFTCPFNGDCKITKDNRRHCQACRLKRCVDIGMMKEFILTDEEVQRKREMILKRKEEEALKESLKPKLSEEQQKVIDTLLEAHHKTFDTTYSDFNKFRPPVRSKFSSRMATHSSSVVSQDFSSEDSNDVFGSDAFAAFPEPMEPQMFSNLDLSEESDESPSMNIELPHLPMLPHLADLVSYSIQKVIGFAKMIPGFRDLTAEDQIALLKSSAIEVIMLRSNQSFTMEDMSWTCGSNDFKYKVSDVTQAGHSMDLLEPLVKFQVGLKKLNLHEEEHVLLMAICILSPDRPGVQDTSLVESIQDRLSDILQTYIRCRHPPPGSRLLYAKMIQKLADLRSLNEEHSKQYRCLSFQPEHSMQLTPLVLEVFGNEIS
Source text: Bound and free ^3 H-1α,25(OH2)D3 were then separated on dextran-coated charcoal, samples were centrifuged and the supernatants containing the receptor-bound ^3 H-1α,25(OH2)D3 were counted in a liquid scintillation counter.

Q: What does the source list for C=C1/C(=C\C=C2/CCC[C@]3(C)[C@@H]([C@@H](C)[C@@H](C#CCC(O)(CC)CC)OCC)CC[C@@H]23)C[C@@H](O)C[C@@H]1O [Compound (A), 1(S),3(R)-dihydroxy-20(R)-(1-ethoxy-5-ethyl-5-hydroxy-2-heptyn-1-yl)-9,10-seco-pregna-5(Z),7(E),10(19)-triene]?
A: production of GDNF mRNA (GDNF mRNA): facilitated the production of NRT-like mRNA, GDNF mRNA; production of NT-3 mRNA (NT-3 mRNA): facilitated the production of NRT-like mRNA, GDNF mRNA, NT-3 mRNA; production of BDNF mRNA (BDNF mRNA): facilitated the production of NRT-like mRNA, GDNF mRNA, NT-3 mRNA, and BDNF mRNA; serum calcium ([1]; 1.0 μg/kg, after 2 weeks of dosing): did not increase serum calcium; calcemic classification of dose ([1]; 1.0 μg/kg, considered in toto): hypercalcemic dose when considered in toto; hypercalcemia, 28-day toxicology studies ([1]; 1 μg/kg, female vs male Sprague Dawley rats, data not shown): hypercalcemic to female, but not male, Sprague Dawley rats; hypercalcemia ([1]; 3.0 μg/kg): hypercalcemic to the animals; locomotor activity (squares entered per 5 minutes) ([2]; 1.0 μg/kg/day oral, 26 days): reduced locomotor activity; locomotor activity caused by fimbria fornix lesions ([2]; FIG. 10 legend, oral): reduces locomotor activity; development of peripheral neuropathy ([3]; continuously pumped (mini-pump)): did not prevent the development of the acrylamide-induced peripheral neuropathy; recovery from peripheral neuropathy ([3]; mini-pump): improved recovery; also recorded: an effect upon the recovery from the lesion was apparent; landing foot spread ([3]; mini-pump, recovery period): effective in reducing landing foot spread, but only during the recovery period; also recorded: decreased landing foot spread during the recovery period; development of peripheral neuropathy ([3]; oral): prevented the development of acrylamide-induced peripheral neuropathy; severity of neuropathy and functional recovery ([3]; oral): dose-dependent effects on both the severity of the acrylamide-induced peripheral neuropathy as well as the ability of the animals to functionally recover from the lesion; landing foot spread ([3]; oral 3.0 μg/kg/day): statistically significant decrease in landing foot spread; time course of decrease in landing foot spread ([3]; oral 3.0 μg/kg/day, onset days 1-24, recovery days 24-42): occurred during the onset of the lesion (days 1-24) and were sustained through the recovery phase; landing foot spread ([3]; oral, FIGS. 11A-11C legend): decreases landing foot spread; pKd (vitamin D receptor): 9.70
